Our source for the drug/cell ratio values is US20180133343A1, “NANOPARTICLE CONJUGATES AND USES THEREOF” (Massachusetts Institute of Technology, priority 2016, published 2018).

This assay has as its system CD8+ T cells. In words: Drug concentration in CD8+ T cells after in vitro incubation. It counts as cell-based. The settings on record: free drug at 10-fold higher dose, compared to drug-loaded nanoparticles.

On to `Cc1cccc(-c2[nH]c(C(C)(C)C)nc2-c2ccc3nccnc3c2)n1` [SB525334], for which the drug/cell ratio result is “lower drug/cell ratio”.
